Results from patent US20230117680A1, “CYCLOPHILIN D INHIBITORS AND USES THEREOF” (The Broad Institute, Inc., priority 2019, published 2023).

Experiments:
NKTR = target: T1, NKTR (Homo sapiens, UniProt P30414); assay: chymotrypsin coupled PPIase assay, NKTR inhibition; format: biochemical; conditions: result in words
T1 sequence (P30414 1-1462): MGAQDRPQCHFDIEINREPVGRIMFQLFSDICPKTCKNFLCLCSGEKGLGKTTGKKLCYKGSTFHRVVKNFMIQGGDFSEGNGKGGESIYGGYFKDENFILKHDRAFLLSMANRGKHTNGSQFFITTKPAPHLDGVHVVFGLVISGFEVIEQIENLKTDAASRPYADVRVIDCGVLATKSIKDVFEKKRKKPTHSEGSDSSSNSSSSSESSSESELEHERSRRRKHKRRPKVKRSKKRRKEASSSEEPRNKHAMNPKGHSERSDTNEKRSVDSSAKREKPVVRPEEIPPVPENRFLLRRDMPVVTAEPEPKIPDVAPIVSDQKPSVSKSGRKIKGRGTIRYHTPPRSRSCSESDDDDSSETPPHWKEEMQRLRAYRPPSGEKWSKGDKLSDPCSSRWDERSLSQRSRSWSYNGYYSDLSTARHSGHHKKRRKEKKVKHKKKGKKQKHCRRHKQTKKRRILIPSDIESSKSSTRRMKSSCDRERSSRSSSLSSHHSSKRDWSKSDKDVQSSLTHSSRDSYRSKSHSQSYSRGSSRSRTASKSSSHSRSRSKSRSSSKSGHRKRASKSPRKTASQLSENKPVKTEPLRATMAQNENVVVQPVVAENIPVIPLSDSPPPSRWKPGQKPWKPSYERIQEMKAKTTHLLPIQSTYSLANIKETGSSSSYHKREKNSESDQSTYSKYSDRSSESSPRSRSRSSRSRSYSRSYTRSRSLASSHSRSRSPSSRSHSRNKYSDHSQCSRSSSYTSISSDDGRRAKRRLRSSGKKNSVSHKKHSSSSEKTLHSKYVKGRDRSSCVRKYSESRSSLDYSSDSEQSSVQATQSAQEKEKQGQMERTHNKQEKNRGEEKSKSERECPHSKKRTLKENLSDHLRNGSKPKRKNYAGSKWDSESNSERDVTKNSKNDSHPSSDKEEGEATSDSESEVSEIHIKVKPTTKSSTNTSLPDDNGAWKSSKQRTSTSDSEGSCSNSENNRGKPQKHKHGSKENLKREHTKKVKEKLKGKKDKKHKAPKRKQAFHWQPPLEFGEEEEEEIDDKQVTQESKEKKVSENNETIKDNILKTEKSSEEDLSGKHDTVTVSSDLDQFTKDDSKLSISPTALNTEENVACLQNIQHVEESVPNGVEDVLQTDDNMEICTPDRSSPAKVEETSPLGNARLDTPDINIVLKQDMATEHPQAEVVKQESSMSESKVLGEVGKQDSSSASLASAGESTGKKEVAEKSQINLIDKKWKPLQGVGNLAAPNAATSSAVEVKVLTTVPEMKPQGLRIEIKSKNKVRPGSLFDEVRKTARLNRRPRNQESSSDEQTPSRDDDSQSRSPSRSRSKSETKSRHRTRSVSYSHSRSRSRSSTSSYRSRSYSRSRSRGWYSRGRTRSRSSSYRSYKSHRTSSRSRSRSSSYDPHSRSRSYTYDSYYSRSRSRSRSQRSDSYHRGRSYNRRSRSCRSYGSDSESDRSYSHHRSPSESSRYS
Experimental: (§1) Following the synthesis of the indicated library members, in vitro inhibition (IC50) assays of these hits were conducted to obtain IC50 inhibitory data. For the IC50 assays, a chymotrypsin coupled PPIase assay using Suc-AAPF-AMC as the peptide substrate was used, whereby isomerization of a peptide substrate Suc-AAPF-AMC from the cis to trans conformation allowed for proteolysis via excess a-chymotrypsin, releasing the C-terminal coumarin fluorophore. […] Other non-inhibitor library members were also checked for binding via SPR, but produced the same profile as the prolyl isomerase assay.
(§2) Subsequently, to determine if the compounds could both access the S2 pocket and display CypD specificity, JOMBtrans and compound 49 were screened against the 10 other cyclophilins with reported prolyl isomerase activity. […] Co-crystal structures of JOMBtrans and 49 were solved with CypD. […] Three further H-bonds with the macrocycle's backbone and CypD were observed along with a cation-n interaction. […] The benzyl group on the piperidine ring altered the conformation of the macrocycle to open up two new hydrogen bonding interactions with CypD. […] This improvement in specificity compared to JOMBtrans signified that more CypD specific compounds can be garnered by derivatization into the S2 pocket.

CypG = target: T2, CypG (Homo sapiens, UniProt Q13427); assay: chymotrypsin coupled PPIase assay, CypG inhibition; format: biochemical; conditions: result in words
T2 sequence (Q13427 1-754): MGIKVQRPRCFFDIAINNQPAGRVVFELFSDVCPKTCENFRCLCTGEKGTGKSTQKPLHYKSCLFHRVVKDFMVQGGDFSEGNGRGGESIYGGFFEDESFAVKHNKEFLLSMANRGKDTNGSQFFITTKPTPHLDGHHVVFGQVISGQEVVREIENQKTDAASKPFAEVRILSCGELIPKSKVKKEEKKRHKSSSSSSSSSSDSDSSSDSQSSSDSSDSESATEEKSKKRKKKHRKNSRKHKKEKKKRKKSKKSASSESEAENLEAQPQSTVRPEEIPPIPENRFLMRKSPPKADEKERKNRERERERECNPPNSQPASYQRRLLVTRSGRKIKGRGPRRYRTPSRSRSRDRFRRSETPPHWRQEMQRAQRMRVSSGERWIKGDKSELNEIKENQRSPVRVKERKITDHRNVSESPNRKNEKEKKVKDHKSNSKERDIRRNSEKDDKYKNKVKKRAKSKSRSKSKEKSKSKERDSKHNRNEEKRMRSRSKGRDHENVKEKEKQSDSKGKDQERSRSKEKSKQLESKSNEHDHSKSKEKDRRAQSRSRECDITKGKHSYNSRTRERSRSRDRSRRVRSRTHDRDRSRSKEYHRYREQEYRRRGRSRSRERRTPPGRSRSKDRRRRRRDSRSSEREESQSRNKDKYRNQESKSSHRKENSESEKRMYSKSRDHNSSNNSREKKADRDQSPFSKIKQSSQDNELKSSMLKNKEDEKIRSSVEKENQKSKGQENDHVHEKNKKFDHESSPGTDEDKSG
Experimental: as §1, §2

NCCOCCNC(=O)[C@@H]1CCNC(=O)/C=C/C(=O)N2CCC[C@H](C2)C(=O)N[C@@H](Cc2ccc(C(=O)c3ccccc3)cc2)C(=O)NCc2ccccc2CC(=O)N1 [compound 27]
inhibition of NKTR (NKTR): Almost complete ablation of inhibition profiles
inhibition of CypG (CypG): Almost complete ablation of inhibition profiles
